Measurements taken from patent US5824646A, “Intravaginal delivery of biologically active polypeptides” (Teikoku Seiyaku Co., Ltd., priority 1997, dated 1998).
Where no end group is shown, it is not given here.

Key:
[1] = test system: oophorectomized female Wister rats; test: Serum calcium decrease after intravaginal porcine calcitonin in young oophorectomized rats; assay type: in vivo, rat
Protocol: Oophorectomy was performed on 5- to 6-week old female Wister rats which, after about one month, were used in this experiment as an animal model for postmenopausal women.
To 20 I.U. porcine calcitonin, 3 mg of bovine serum albumin (BSA) was added. Sodium lauryl sulfate (hereinafter called "SDS") was then added to the above-prepared mixture to make 0.05, 0.1, 0.5 and 1 w/v% concentrations, respectively. The mixtures of different SDS concentrations were then each diluted with 0.1M acetic acid/sodium acetate buffer solution (pH 5.0) to make 1 ml calcitonin solutions. Rats were anesthetized with ether, and a required amount of blood was taken from the right external jugular vein before the administration of calcitonin. After a small cotton ball was inserted into the vagina of the rat, each 50 microliters of calcitonin solution of different SDS concentrations was administered. Blood was again extracted 2 hours after calcitonin administration.
After the separation of blood serum, serum calcium concentration was determined with a Calcium C test kit, a registered trademark at Wako Chemical in Japan. The results are depicted in FIG. 1.
Oophorectomized menopausal model rats were used in this experiment, similarly to Example 1.
Bovine serum albumin was added to each 1 ml of 2, 10, 20, 40 and 80 I.U./ml of porcine calcitonin dissolved in acetic acid buffer solution (pH 5.0) to make 3 mg/ml. Then, SDS was added to each solution to make 1 w/v%. Similarly to Example 1, these preparations containing different concentrations of calcitonin were administered intravaginally to the rats, and the serum calcium concentration was determined. […] The largest ratio of decreased serum calcium against control noted in this experiment was 30%.

[2] = test system: intravaginal protease; test: Protease activity of vaginal wash with BAEE as substrate after intravaginal preparation; assay type: biochemical, rat
Protocol: The calcitonin pharmaceutical preparation was prepared according to Examples 1 and 2. The preparation was inserted into the vagina with a small cotton ball. Two hours after the insertion, the inserted cotton ball was removed from the vagina. The vagina was then washed with a fixed quantity of phosphate buffered saline solution, the washed solution was combined with the cotton ball, and the protease activity was determined with BAEE as substrate.

[3] = test system: oophorectomized rats; test: Serum calcitonin (RIA) and serum calcium after intravaginal human calcitonin with SDS; assay type: in vivo, rat; details: 10-200 micrograms HCT per kg, 0.3% BSA, 1 w/v% SDS, pH 5, 2 hours
Protocol: Similarly to Examples 1 and 2, oophorectomized rats were used in this experiment. 1000 micrograms of Human calcitonin (HCT) was dissolved in 1 ml of 0.1M acetate buffer (pH 5) containing 0.3 w/v% bovine serum albumin and 1 w/v% SDS. 10, 25, 50, 100 and 200 micrograms of HCT (protein weight) in solution per 1 kg body weight of rats were taken out of the HCT solution mentioned above, and each portion of the HCT solution was diluted up to 50 microliters with 0.1M acetate buffer (pH 5) containing 0.3% (w/v%) bovine serum albumin and 1 w/v% SDS. Each 50 microliters of HCT solution with a different amount of HCT was administered into the vagina with a small cotton ball. Two hours after drug administration, blood was extracted from the right external jugular vein of the anesthetized rat, and serum calcium was determined with a Calcium C test kit. Serum calcitonin was also determined by a radioimmunoassay method (RIA method), using human calcitonin antibody.

[4] = test system: oophorectomized rats; test: Serum H-CT (RIA) and serum calcium after intravaginal H-CT with sodium caprate and Nonidet P-40; assay type: in vivo, rat; details: 250 micrograms H-CT, 0.3% BSA, 1% sodium caprate, 2% Nonidet P-40, pH 5, 1, 2 and 4 hours
Protocol: Oophorectomized rats were used in this experiment in a similar manner as Example 3. 1 mg of H--CT was dissolved in 400 microliters of 0.1M acetate buffer (pH 5) containing 0.3 w/v% bovine serum albumin (BSA) and 1% sodium caprate and 2% Nonidet P-40. 100 microliters of H--CT solution (250 micrograms H--CT) was administered into the vagina of the rat with a small cotton ball. Blood samples were taken from the right external jugular vein of the anesthetized rats at 1, 2 and 4 hours after administration. Serum calcium was determined with a Calcium C test kit. Serum H--CT was also determined by the RIA method using human calcitonin antibody.

[5] = test system: oophorectomized rats; test: Serum glucose after intravaginal insulin preparation; assay type: in vivo, rat; details: 5 U. insulin, 1 w/v% SDS
Protocol: The oophorectomized rats described in Example 1 were used in this experiment. The insulin pharmaceutical preparation prepared according to this invention was administered intravaginally to the rats, and the change in plasma glucose was investigated. Bovine serum albumin and SDS were added to a solution of 100 U./ml insulin in 0.1M acetic acid/sodium acetate buffer solution to make a final concentration of 3 mg/ml and 1 w/v%, respectively. The pH was adjusted to 5.0 with 0.1M acetic acid/sodium acetate buffer solution. The 5 U. insulin preparation was administered into the vagina of the rat with a small cotton ball. Serum glucose at 2 hours after drug administration was compared with that before drug administration. It was noted that at 2 hours after drug administration, the blood sugar level decreased about 30% in comparison with that prior to drug administration.

[6] = test system: aged, oophorectomized rats; test: Serum calcium decrease by porcine calcitonin in aged oophorectomized rats; assay type: in vivo, rat; details: intramuscular injection (femoral bicipital muscle), different concentrations
Protocol: The ovaries of 30-week-old female Wister rats were excised about one month before use in the experiment.
Prior to this experiment, a separate experiment was performed to investigate the susceptibility of aged, oophorectomized rats to porcine calcitonin. Different concentrations of calcitonin were injected into rats in the femoral bicipital muscle, and the decreasing serum calcium was determined.
Following the procedure of Examples 1 and 2, a dose of 4 I.U. calcitonin per rat was prepared and administered intravaginally by inserting a small cotton ball in the vagina. Following the procedure of Examples 1 and 2, blood was extracted and the blood calcium concentration was determined.

[7] = test system: 5-week-old Wister male rats; test: Effect of SDS on calcitonin stability: bioassay of stored preparations by intramuscular injection; assay type: in vivo, rat
Protocol: A porcine calcitonin (P--CT) pharmaceutical preparation according to the invention was prepared by the method described in Examples 1 and 2, and the stability of porcine calcitonin in the resultant preparation was investigated. Thus, 1 ml of 3 mg/ml bovine serum albumin (BSA) solution was added to 40 I.U. of porcine calcitonin, and the mixture was divided into two equal portions. SDS was added to one of the portions to make a final concentration of 0.1 w/v%; and no SDS was added to the other portion. The pH of both of the preparations was then adjusted to pH 5 with acetic acid/sodium acetate buffer (0.1M) solution. These two preparations were then stored at 37° C. for 8 days. The biological activity of calcitonin of the 8-day stored preparations was then investigated using 5-week-old Wister male rats. A dosage of 0.12 I.U./kg calcitonin of these two preparations was administered to the rats by injection into the femoral muscle. One hour after drug administration, blood was extracted from the right external jugular vein, and the blood calcium content was determined.

[8] = test system: 5-week-old male Wister rats; test: Effect of pH and human serum albumin on calcitonin stability: bioassay by intramuscular injection; assay type: in vivo, rat; details: 0.03 I.U./ml, 4° C. for one week, bioassay 0.06 I.U./kg i.m.
Protocol: Using blood calcium decreasing ratio as an indication, the effect of pH and human serum albumin (HSA) on the stability of calcitonin in the preparation of this invention was investigated using 5-week-old male Wister rats.
Purified porcine calcitonin (P--CT) was dissolved in 0.1M acetic acid buffer solutions of pH 3.0 and pH 5.0 and 0.1M phosphoric acid buffer solution of pH 6.8 so that each of the solutions contained 0.03 I.U./ml of porcine calcitonin. Each calcitonin solution (pH 3.0, 5.0, 6.8) was divided into two parts. In each case, to one portion of the calcitonin solutions 3 mg/ml of HSA was added, while no treatment was performed on the other portion. The resultant preparations were stored at 4° C. for one week. These calcitonin preparations were then each injected into the femoral bicipital muscle of the rats at a dosage of 0.06 I.U. per kg body weight. An appropriate quantity of blood was extracted from the right external jugular vein, and blood […] was determined with a Calcium C-Test kit.

[9] = test system: oophorectomized rats; test: Serum calcium and serum calcitonin after intravaginal S-CT suppository; assay type: in vivo, rat; details: PEG suppository, 250 micrograms S-CT, BSA, Nonidet P-40, sodium caprate, 1, 2 and 4 hrs
Protocol: The model animals and experimental procedures are similar to that described in Example 10. The suppositories used in this Example were prepared as follows. 1 mg of S--CT was dissolved in 100 microliters of 0.1M acetate buffer solution (pH 5) containing 1.5 mg of BSA (bovine serum albumin), 10 mg of Nonidet P-40, and 5 mg of sodium caprate. 383 mg of suppository base composed of PEG 4000 (33%), PEG 6000 (47%) and distilled water (20%) was warmed to 45° to 50° C., then mixed well with the S--CT solution using a Vortex mixer for 1 min, then transferred into a brass suppository mold and cooled to approximately 4° C. for 2 hrs. 125 mg of S--CT suppository contained 250 micrograms of S--CT. 250 micrograms of a S--CT suppository was administered into the rat vagina. 1, 2, and 4 hrs after administration, blood samples were taken, and the serum calcium concentration and the serum calcitonin were determined by the same method used in Example 10.

[10] = 3 mg/ml BSA, pH 5.0, after 2 hours

CCCCCCCCCCCCOS(=O)(=O)[O-].[Na+] [SDS, Sodium lauryl sulfate]
ratio of decreased serum calcium concentration against the control ([1]; porcine calcitonin 20 I.U./ml, 3 mg BSA, SDS 0.05, 0.1, 0.5 and 1 w/v%, pH 5.0, 50 microliters intravaginal, 2 hours, control without SDS): increased correspondingly with increasing concentration of SDS | decrease of protease activity in comparison with the control group ([2]; 1% SDS added group versus control without SDS): about 30% | protease activity relative to control (control = 100.0) ([2]; 1% SDS in calcitonin preparation, vaginal wash 2 hours after insertion): 29.2 | protease activity ([2]; 1% SDS in calcitonin preparation, vaginal wash plus cotton ball 2 hours after insertion): 6.84 BAEE units/mg protein

Human calcitonin [HCT]
serum calcitonin (RIA) [3]: increased proportionally to the increase in the dosage of calcitonin administered into the vagina | serum calcium [3]: decreased correspondingly with increase in calcitonin dosage | serum calcitonin (RIA) [4]: increased proportionally to the increase in the dosage of calcitonin administered into the vagina | serum calcium [4]: decreased correspondingly with an increase in calcitonin dosage

insulin
Glucose Concentration in Serum [5, 10]: 53 ± 24.6 mg/dL | Glucose Concentration in Serum relative to prior to administration (100) [5, 10]: 70.7% | decrease of blood sugar level in comparison with that prior to drug administration ([5]; BSA, 2 hours): about 30%

porcine calcitonin (CSNLSTCVLSAYWRNLNNFHRFSGMGFGPETP; ends and bridges not checked; cysteine pairing not given here; UniProt P01259 1-32, looked up) [P-CT]
ratio of decreased serum calcium against control (dose response) ([1]; 2, 10, 20, 40 and 80 I.U./ml porcine calcitonin, 3 mg/ml BSA, 1 w/v% SDS, pH 5.0, intravaginal): exhibited an increase proportional to the increase of calcitonin concentration | largest ratio of decreased serum calcium against control ([1]; 2-80 I.U./ml porcine calcitonin, 3 mg/ml BSA, 1 w/v% SDS, intravaginal, young oophorectomized rats): 30% | largest ratio of decreased serum calcium against control [6]: about 10% | Ratio of Decreased Calcium Concentration Against Control, 0 day ([7]; P-CT (40 I.U.)/0.3% BSA/ml, pH 5.0, freshly made, 0.12 I.U./kg i.m., 1 hour): 20.7 | Ratio of Decreased Calcium Concentration Against Control, 8 days (at 37° C.) ([7]; P-CT (40 I.U.)/0.3% BSA/ml, pH 5.0, stored 8 days at 37° C., 0.12 I.U./kg i.m., 1 hour): 11.1 | biological activity after the 8-day storage period ([7]; stored at 37° C. for 8 days, pH 5, compared with freshly made preparation): decreased to about half that of the freshly made preparation | stability of calcitonin in pH 6.8 solution with HSA ([8]; 3 mg/ml HSA added): became as stable as calcitonin in a solution of pH 3.0 or 5.0 | stability of calcitonin in buffer solutions without HSA, pH 3.0 and 5.0 ([8]; 0.1M acetic acid buffer): stable | stability of calcitonin in buffer solution without HSA, pH 6.8 ([8]; 0.1M phosphoric acid buffer): unstable

salmon calcitonin [S--CT]
absorption of S-CT and its biological activity [9]: exhibit a dose-dependent response
